13 compounds from patent US7405201B2, “Antibacterial macrocycles” (Bayer Healthcare AG, priority 2001, dated 2008) can be followed below.

Converted amounts (≈) assume the structure as drawn. Where two headings read alike, the source gives them in different places. Positions of bridges follow the written chain, without caps; N, C: chain ends. Non-standard residues stand in square brackets, D forms with d. Residues, ends and D or L forms follow the SMILES beside them. ξ: configuration not given here. *: point of attachment. Phe(3,5-F2) = N[C@@H](Cc1cc(F)cc(F)c1)C(=O)O; Phe(3-Cl) = N[C@@H](Cc1cccc(Cl)c1)C(=O)O; ξPhe(3,5-F2) = NC(Cc1cc(F)cc(F)c1)C(=O)O; Pro(4R-Me) = C[C@H]1CN[C@H](C(=O)O)C1; Phe(2-F) = N[C@@H](Cc1ccccc1F)C(=O)O; Heptenoyl(2E) = CCCC/C=C/C(=O)*; NMeS = CN[C@@H](CO)C(=O)O; X4 = O=C(/C=C/C1CC=CCC1)*; NMeA = CN[C@@H](C)C(=O)O; X1 = CC(C)/C=C(\F)C(=O)*; X5 = CCCC(C)/C=C/C(=O)*; X2 = CCCCC/C=C/C(=O)*; ξPip = O=C(O)C1CCCCN1; X3 = O=C(C=C1CCC1)*

The conditions of data set [1]: amide bond, EDC/pentafluorophenol (Pfp ester), then HCl/dioxane, then aq. NaHCO3, dichloromethane, 25.0 °C, 3 steps.
For data set [2], the system named is Streptococcus pneumoniae 1707/4. Put plainly: Minimum inhibitory concentration (MIC), liquid dilution test. The data set is classed as cell-based. As to conditions: Müller Hinton broth plus 20% bovine serum, 37° C., 18-24 hours, 8-10% of CO2. As for the experimental part: (§1) Determination of the Minimum Inhibitory Concentration (MIC): The MIC is determined in the liquid dilution test. Overnight cultures of the test microorganisms are diluted 1:5 000 or S. aureus 133 is diluted 1:10 000 in Müller Hinton broth (manufacturer: BBL) and incubated with dilutions of the test substances (dilution stages 1:2). Exceptions are the tests with S. pyogenes Wacker and S. pneumoniae 1707/4, which are carried out in Müller Hinton broth plus 20% bovine serum. The cultures are incubated at 37° C. for 18-24 hours; enterococci and streptococci in the presence of 8-10% of CO2. The lowest substance concentration in each case at which visible bacterial growth no longer takes place is defined as the MIC. […] The compounds show very good antibacterial action against most of the test microorganisms and thus a broad Gram-positive action.

Data set [3] has as its system Streptococcus pyogenes Wacker. The data set is described as above. The data set is classed as cell-based. Particulars: Müller Hinton broth plus 20% bovine serum, 37° C., 18-24 hours, 8-10% of CO2. On the procedure: as §1
Data set [4] concerns Staphylococcus aureus 133. Described as above. The data set is classed as cell-based. Particulars: Müller Hinton broth, overnight culture diluted 1:10 000, 37° C., 18-24 hours. As for the experimental part:
as §1

Data set [5] has as its system Enterococcus faecalis ICB 27159. Described as above. The data set is classed as cell-based. Particulars: ICB27159, Müller Hinton broth, 37° C., 18-24 hours, 8-10% of CO2. As for the experimental part:
as §1

The test system of data set [6] is Enterococcus faecium L 4001. Described as above. In kind it is cell-based. As to conditions: L4001, Müller Hinton broth, 37° C., 18-24 hours, 8-10% of CO2. On the procedure:
as §1

`C[C@@H]1C[C@H]2C(=O)OC[C@H](NC(=O)OCc3ccccc3)C(=O)N3CCC[C@H]3C(=O)N3CCCC[C@H]3C(=O)N[C@@H](C)C(=O)N2C1` yielded a ring closure, yield of all isomers in data set [1] (from C[C@@H]1C[C@@H](C(=O)OC[C@H](NC(=O)OCc2ccccc2)C(=O)O)N(C(=O)[C@H](C)NC(=O)[C@@H]2CCCCN2C(=O)[C@@H]2CCCN2C(=O)OC(C)(C)C)C1, 2.58 mM, 16.0 h) of 60%.
In data set [1] (from C[C@H](NC(=O)[C@H](C)N(C)C(=O)[C@@H]1CCCN1C(=O)OC(C)(C)C)C(=O)N1CCC[C@H]1C(=O)OC[C@H](NC(=O)OCc1ccccc1)C(=O)O, 8.9 mM, 2.0 h), `C[C@@H]1NC(=O)[C@H](C)N(C)C(=O)[C@@H]2CCCN2C(=O)[C@@H](NC(=O)OCc2ccccc2)COC(=O)[C@@H]2CCCN2C1=O` registered a ring closure, yield of all isomers of 58%.
On to `CCCC/C=C/C(=O)N[C@@H](Cc1cc(F)cc(F)c1)C(=O)N[C@H]1COC(=O)[C@@H]2CCCN2C(=O)[C@H](C)NC(=O)[C@H](C)N(C)C(=O)[C@@H]2CCCN2C1=O` [Example 1, (E)-Hept-2-enoic acid [(S)-2-(3,5-difluorophenyl)-1-((3S,7S,13S,16S,19S)-13,16,17-trimethyl-2,6,12,15,18-pentaoxo-5-oxa-1,11,14,17-tetraazatricyclo[17.3.0.0^7,11]docos-3-ylcarbamoyl)-ethyl]-amide] ({Heptenoyl(2E)}-[Phe(3,5-F2)]SP[NMeA]AP; ester 2-C), for which the MIC – broadly, the least concentration at which growth counts as inhibited – in data set [2] was less than 0.125 µg/mL; in data set [3], 25 µg/mL; in data set [4], 0.25 µg/mL (≈ 0.342 µM); in data set [5], less than 0.125 µg/mL; in data set [6] it was less than 0.125 µg/mL.
For the compound `C[C@@H]1C[C@H]2C(=O)OC[C@H](NC(=O)[C@H](Cc3cc(F)cc(F)c3)NC(=O)CCC3CCCCC3)C(=O)N3CCC[C@H]3C(=O)N3CCCC[C@H]3C(=O)N[C@@H](C)C(=O)N2C1` [Example 3, 3-Cylcohexylpropanoic acid [(S)-2-(3,5-difluorophenyl)-1-((3S,9S,13S,15R,19S,22S)-15,19-Dimethyl-2,8,12,18,21-pentaoxo-11-oxa-1,7,17,20-tetraaza-tetracyclo[20.4.0.0^3,7.0^13,17]hexacos-9-ylcarbamoyl)-ethyl]-amide], the MIC in data set [2] was less than 0.125 µg/mL; in data set [3] it was 0.5 µg/mL; in data set [4], 0.5 µg/mL (≈ 0.626 µM); in data set [5] it was less than 0.125 µg/mL; in data set [6], less than 0.125 µg/mL.
As to `CCCC/C=C/C(=O)N[C@@H](Cc1cc(F)cc(F)c1)C(=O)N[C@H]1COC(=O)[C@@H]2C[C@@H](C)CN2C(=O)[C@H](C)NC(=O)[C@H](C)N(C)C(=O)[C@@H]2CCCN2C1=O` [Example 6] ({Heptenoyl(2E)}-[Phe(3,5-F2)]SP[NMeA]A[Pro(4R-Me)]; ester 2-C), the MIC is 0.125 µg/mL in data set [2]; 0.25 µg/mL in data set [3]; less than 0.125 µg/mL in data set [4]; less than 0.125 µg/mL in data set [5]; less than 0.125 µg/mL in data set [6].
For the compound `CCCC/C=C/C(=O)N[C@@H](Cc1cc(F)cc(F)c1)C(=O)N[C@H]1COC(=O)[C@@H]2CCCN2C(=O)[C@H](C)NC(=O)[C@H](CO)N(C)C(=O)[C@@H]2CCCN2C1=O` [Example 13] ({Heptenoyl(2E)}-[Phe(3,5-F2)]SP[NMeS]AP; ester 2-C), the MIC in data set [2] was less than 0.125 µg/mL; in data set [3] it was less than 0.125 µg/mL; in data set [4] it was 0.25 µg/mL (≈ 0.335 µM); in data set [5], less than 0.125 µg/mL; in data set [6], less than 0.125 µg/mL.
In the case of `C[C@@H]1NC(=O)[C@H](C)N(C)C(=O)[C@@H]2CCCN2C(=O)[C@@H](NC(=O)[C@H](Cc2ccccc2F)NC(=O)/C=C/C2CC=CCC2)COC(=O)[C@@H]2CCCN2C1=O` (stereo partly drawn) [Example 28] (X4-[Phe(2-F)]SP[NMeA]AP; ester 2-C), the minimum inhibitory concentration (MIC) in data set [2] came to 1 µg/mL; in data set [3], 2 µg/mL; in data set [4] it was 8 µg/mL (≈ 10.9 µM); in data set [5], 8 µg/mL (≈ 10.9 µM); in data set [6], 4 µg/mL (≈ 5.43 µM).
With `CCCCC/C=C/C(=O)N[C@@H](Cc1cccc(Cl)c1)C(=O)N[C@H]1COC(=O)[C@@H]2CCCN2C(=O)[C@H](C)NC(=O)[C@H](C)N(C)C(=O)[C@@H]2CCCN2C1=O` [Example 32] (X2-[Phe(3-Cl)]SP[NMeA]AP; ester 2-C), the MIC worked out at 2 µg/mL in data set [2]; 2 µg/mL in data set [3]; 4 µg/mL (≈ 5.38 µM) in data set [4]; 1 µg/mL (≈ 1.35 µM) in data set [5]; 0.5 µg/mL (≈ 0.673 µM) in data set [6].
Regarding `CCCC/C=C/C(=O)NC(Cc1cc(F)cc(F)c1)C(=O)N[C@H]1COC(=O)[C@@H]2CCCN2C(=O)CNC(=O)C2CCCCN2C(=O)[C@@H]2CCCN2C1=O` (stereo partly drawn) [Example 61] ({Heptenoyl(2E)}-[ξPhe(3,5-F2)]SP[ξPip]GP; ester 2-C), the MIC in data set [2] was found to be 16 µg/mL; in data set [3], 16 µg/mL; in data set [4] it was 64 µg/mL (≈ 86.2 µM); in data set [5] it was 32 µg/mL (≈ 43.1 µM); in data set [6], 32 µg/mL (≈ 43.1 µM).
For the compound `CCCC(C)/C=C/C(=O)N[C@@H](Cc1cc(F)cc(F)c1)C(=O)N[C@H]1COC(=O)[C@@H]2CCCN2C(=O)[C@H](C)NC(=O)[C@H](C)N(C)C(=O)[C@@H]2CCCN2C1=O` (stereo partly drawn) [Example 75] (X5-[Phe(3,5-F2)]SP[NMeA]AP; ester 2-C), the MIC is less than 0.125 µg/mL in data set [2]; 0.25 µg/mL in data set [3]; 0.5 µg/mL (≈ 0.671 µM) in data set [4]; less than 0.125 µg/mL in data set [5]; less than 0.125 µg/mL in data set [6].
Consider `C=CCC/C=C/C(=O)N[C@@H](Cc1cc(F)cc(F)c1)C(=O)N[C@H]1COC(=O)[C@@H]2C[C@@H](C)CN2C(=O)[C@H](C)NC(=O)[C@@H]2CCCCN2C(=O)[C@@H]2CCCN2C1=O` [Example 79], for which the MIC in data set [2] was 0.5 µg/mL; in data set [3], 1 µg/mL; in data set [4] it was 0.25 µg/mL (≈ 0.325 µM); in data set [5], less than 0.125 µg/mL; in data set [6], less than 0.125 µg/mL.
With `CC(C)/C=C(\F)C(=O)N[C@@H](Cc1cc(F)cc(F)c1)C(=O)N[C@H]1COC(=O)[C@@H]2CCCN2C(=O)[C@H](C)NC(=O)[C@H](C)N(C)C(=O)[C@@H]2CCCN2C1=O` [Example 84] (X1-[Phe(3,5-F2)]SP[NMeA]AP; ester 2-C), the MIC came out at 0.25 µg/mL in data set [2]; 0.5 µg/mL in data set [3]; 4 µg/mL (≈ 5.44 µM) in data set [4]; 0.5 µg/mL (≈ 0.68 µM) in data set [5]; 0.5 µg/mL (≈ 0.68 µM) in data set [6].
On to `C[C@@H]1NC(=O)[C@H](C)N(C)C(=O)[C@@H]2CCCN2C(=O)[C@@H](NC(=O)[C@H](Cc2cc(F)cc(F)c2)NC(=O)C=C2CCC2)COC(=O)[C@@H]2CCCN2C1=O` [Example 85] (X3-[Phe(3,5-F2)]SP[NMeA]AP; ester 2-C), for which the minimal inhibitory concentration (MIC) came out at 1 µg/mL in data set [2]; 2 µg/mL in data set [3]; 32 µg/mL (≈ 44.8 µM) in data set [4]; 2 µg/mL (≈ 2.8 µM) in data set [5]; 4 µg/mL (≈ 5.6 µM) in data set [6].
